{"source": "patent US20220260552A1", "about": "“Methods to determine the effect of an agent on mammalian embryonic development” (Toxys B.V., priority 2019, published 2022)", "key": {"[1]": {"tested_on": "GFP-Ck18 mES reporter cells", "assay": "mES GFP-Ck18 reporter cell differentiation towards hepatocytes, GFP fluorescence intensity", "assay_type": "cell-based, mouse", "settings": "after 21 days of differentiation; normalized to DAPI; FIG. 8", "experimental": "FIG. 8: Defective hepatocyte differentiation upon teratogenic compound exposure. mES GFP-Ck18 reporter cells were exposed to different teratogenic compounds during mES cell differentiation towards hepatocytes. After 21 days, fluorescence intensity of the hepatocyte specific GFP-Ck18 reporter was measured using microscopy and quantified using Fiji image processing software. GFP intensity was normalized to nuclear intensity measured using DAPI. Presented values are expressed as percentages of control. Student t-test was used for determination of significance. *p<0.05 **p<0.01.*** p<0.001.\nHepatocyte differentiation was started from a monolayer of mES cells on day −1. On day 0, differentiation medium supplemented with Activin A was added. On day 4, the medium was replaced with liver differentiation medium (DMEM containing 10% serum, PS, NEAA and 2-mercaptoethanol) with aFGF and sodium butyrate. On day 9, the medium was replaced with liver differentiation medium containing HGF. On day 14, cells were exposed to liver differentiation medium containing Dexamethasone and Oncostatin M. From day 17 onwards, liver differentiation medium was refreshed every 3-4 days. Endpoint of differentiation was set on day 21.\nmES cells were seeded on gelatin-coated culture dishes 24 h prior to transfection. […] GFP expression in differentiated cells was determined by flow cytometry."}, "[2]": {"tested_on": "mES cells differentiated towards cardiomyocytes", "assay": "mES cell differentiation towards cardiomyocytes, beating embryoid bodies counted", "assay_type": "cell-based, mouse", "settings": "after 13 days of differentiation; FIG. 5B", "description": "FIG. 5: Defective cardiomyocyte differentiation upon teratogenic compound exposure. mES cells were exposed to teratogenic compounds during mES cell differentiation towards cardiomyocytes. The percentage of beating 3D embryoid bodies (examples in A), representing functional cardiomyocytes, was counted. (B) Quantification of beating bodies. Presented values are expressed as percentages of control. Students t-test was used to determine significance. *p<0.05, **p<0.01, ***p<0.001.\nFor cardiomyocyte differentiation embryonic bodies were used, formed by hanging drops containing 750 cells in Iscoves's Modified Dulbecco's Medium (IMDM). Prior to hanging drop formation, cells were cultured on gelatine-coated dishes in IMDM supplemented with 20% FBS. Cells were detached with cell dissociation buffer (Gibco). After 3 days, embryonic bodies were transferred to a bacterial plate in differentiation medium (IMDM, 10% serum (unless specified otherwise), PS, NEAA and 2-mercapto ethanol). On day 5, the bodies were transferred to a 48-well plate in differentiation medium containing 2% serum, BMP, Activin A, Chir99021 and Xav939. On day 7 embryonic bodies were exposed to only Xav939 in differentiation medium and on day 11 all growth factors were removed and replaced with differentiation medium. Day 13 was used as endpoint for cardiomyocyte differentiation. On this day, beating bodies were quantified and RNA samples collected."}, "[3]": {"tested_on": "hiPSC cells differentiated towards hepatocytes", "assay": "hiPSC differentiation towards hepatocytes in presence of compound, biomarker expression by qPCR", "assay_type": "cell-based, human", "experimental": "The hepatocyte differentiation protocol is based on (Chen et al., 2012, which is incorporated herein by reference). In brief, hiPSC cells were seeded on day −4 in mTESR medium on Matrigel. On day 0 the mTESR medium was replaced with RPMI medium containing B27, Activin A, Chir99021, HGF and PS. On day 3, the cells were refreshed with DMEM medium containing KO serum replacement, Glutamax, NEAA, 2-mercaptoethanol, DMSO and PS. On day 7, the medium was replaced with IMDM medium containing oncostatin M, dexamethasone, ITS, Glutamax, NEAA and PS. On day 10, 14 and 17, cells are refreshed with IMDM medium containing ITS, Glutamax, NEAA and PS. RNA samples were collected on day 0, day 7 and day 21 of differentiation.\n(§1) To assess the effect of potential teratogenic agents, hiPSC were treated with the test material from day 0 until the end of differentiation. When differentiation medium was refreshed, fresh compound was added.\n(§2) Induction of the biomarker expression was compared with the expression of the gene in undifferentiated cells using quantitative real-time PCR (qRT-PCR). At several time points during differentiation, total RNA was isolated using Trizol […]. Complementary DNA was synthesized using oligo(dT) primers and SuperScript […] ReverseTranscriptase (Invitrogen) according to the manufacturer's protocol. Expression of biomarker genes was determined using specific primers (SEQ ID NOs: 68-99, 105 and 106) spanning the exon-exon boundaries of the genes with the PowerUP SYBR Green Master Mix (Applied Biosystems) on a Quantstudio 5 Real-Time PCR System (Applied Biosystems) using ROX as a passive reference. Relative expression was normalized using expression of the GAPDH and HPRT genes."}, "[4]": {"tested_on": "hiPSC cells differentiated towards cardiomyocytes", "assay": "hiPSC differentiation towards cardiomyocytes in presence of compound, biomarker expression by qPCR", "assay_type": "cell-based, human", "method": "Briefly, on day −4, hiPSC cells were seeded in 24-well plates in mTESR medium on Matrigel. On day 0, the medium was replaced with BEL medium (IMDM, HF12 medium, PFHMII medium, BSA, ITS-X, CD lipids, α-Monothioglycerol, Glutamax, PS and ascorbic acid) containing BMP4, Activin A and Chir99021. At day 3 of differentiation, the medium was refreshed with BEL containing Xav939. On day 7 and 10 of differentiation, the medium was replaced with BEL without growth factors. RNA samples were collected on day 0, day 7 and day 14 of differentiation.\nInduction of the biomarker expression was compared with the expression of the gene in undifferentiated cells using quantitative real-time PCR (qRT-PCR). At several time points during differentiation, total RNA was isolated using Trizol (Qiagen). Complementary DNA was synthesized using oligo(dT) primers and SuperScript VI ReverseTranscriptase (Invitrogen) according to the manufacturer's protocol. […] Relative expression was normalized using expression of the GAPDH and HPRT genes."}, "[5]": {"tested_on": "hiPSC cells differentiated towards neural rosettes", "assay": "hiPSC differentiation towards neural rosettes in presence of compound, biomarker expression by qPCR", "assay_type": "cell-based, human", "settings": "compound added during differentiation, day 0 until end, FIG. 2", "experimental": "The protocol for neural differentiation is based on (Lippmann, Estevez-Silva, & Ashton, 2014, which is incorporated herein by reference). In short, hiPSC were seeded in mTESR medium on Matrigel on day −1. On day 0, medium was replaced with E6 medium with PS to start differentiation. Medium was refreshed with E6 medium on Day 3 and 7. RNA samples were collected on day 0, day 7 and day 10.\nas §1, §2"}}, "data": [{"smiles": "O=c1[nH]cc(F)c(=O)[nH]1", "note": "[5′fluoracil, 5-fluorouracil]", "values": [{"measurement": "GFP-Ck18 intensity", "setting": "[1]", "value": "significantly reduced"}, {"measurement": "beating cardiomyocytes (beating embryoid bodies)", "setting": "[2]", "value": "decrease"}]}, {"smiles": "C=CC(N)=O", "note": "[acrylamide]", "values": [{"measurement": "biomarker expression during hepatocyte differentiation", "setting": "[3]; compound present during differentiation, qPCR, T-test vs vehicle control, FIG. 3", "value": "no significant reduction"}]}, {"smiles": "O=C1NC(=O)C(c2ccccc2)(c2ccccc2)N1", "note": "[diphenylhydantoin]", "values": [{"measurement": "beating cardiomyocytes (beating embryoid bodies)", "setting": "[2]", "value": "decrease"}]}, {"smiles": "CC1=C(/C=C/C(C)=C/C=C/C(C)=C/C(=O)O)C(C)(C)CCC1", "note": "[retinoic acid, All-trans retinoic acid]", "values": [{"measurement": "Expression of AFP in hepatocytes", "setting": "[3]", "value": "reduced"}, {"measurement": "Expression of ALB in hepatocytes", "setting": "[3]", "value": "reduced"}, {"measurement": "Expression of MYH6 in cardiomyocytes", "setting": "[4]", "value": "reduced"}, {"measurement": "GFP-Ck18 intensity", "setting": "[1]", "value": "significantly reduced"}, {"measurement": "beating cardiomyocytes (beating embryoid bodies)", "setting": "[2]", "value": "decrease"}, {"measurement": "Expression of PAX6 in neural rosettes", "setting": "[5]", "value": "reduced"}]}]}
